# Reference: patent US10233195B2, “Anti-fibrotic pyridinones” (InterMune, Inc., priority 2014, dated 2019)
# System: TGF-b induced Endothelin-1 production
# Experiment: ET-1 assay: inhibitory effect on TGF-b induced endothelin-1 production
# Type: cell-based
# Conditions: Homo sapiens, Fibroblast; fibroblasts, stimulant (TGFb, serum, LPA etc), ET-1 in media by ELISA, 4-parameter fit
# Outline: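 Fibroblasts (primary human lung/dermal, HFL-1, 3T3) serum-starved 0-48 h, preincubated ~30 min with compound, then stimulated (TGFb, serum or LPA) for 16-48 h. Secreted ET-1 measured by ELISA; EC50 from 4-parameter logistic fit, with CC50 from ATPlite in the same wells.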
row,Compound,EC50
1,CCc1cc(=O)n(-c2ccc(OC(F)(F)F)cc2)cc1-c1cnn(C)c1 [Compound 235],50 to 200 µM
2,Cn1cc(-c2cn(-c3ccc(OC(F)(F)F)cc3)c(=O)c3c2OCC(=O)N3)cn1 [Compound 393],> 200 µM
3,CCOc1ccc(-n2cc(-c3cnn(C)c3)c(NCc3cc(F)cc(F)c3)cc2=O)c(C)c1 [Compound 703],< 50 µM
4,O=c1c2ccc(C(F)(F)F)nc2c(-c2ccc(F)cc2)cn1-c1ccc(OC(F)(F)F)cc1 [Compound 38],> 200 µM
5,Cn1cc(-c2cn(-c3ccc(OC(F)(F)F)cc3)c(=O)cc2NCc2ncccn2)cn1 [Compound 529],> 200 µM
6,Cc1cc(=O)n(-c2ccccc2F)cc1-c1ccc(F)cc1 [Compound 178],50 to 200 µM
7,CCn1nc2c(-c3ccc(F)cc3)cn(-c3ccc(OC(F)(F)F)cc3)c(=O)c2n1 [Compound 680],> 200 µM
8,Cc1ccc(=O)n(-c2ccccc2)n1 [Compound 359],> 200 µM
9,Cc1cc(=O)n(-c2ccc3ocnc3c2)cc1-c1cnn(C)c1 [Compound 224],> 200 µM
10,O=c1ccc(-c2ccc(F)cc2)cn1-c1ccccc1Cl [Compound 291],> 200 µM
11,Cc1cc(=O)n(-c2ccc(OC(F)(F)F)cc2C)cc1-c1cnn(C)c1 [Compound 442],> 200 µM
12,CC(C)c1cc(=O)n(-c2ccc(OC(F)(F)F)cc2)cc1-c1cnn(C)c1 [Compound 236],50 to 200 µM
13,Nc1cc(=O)n(-c2ccc(OC(F)(F)F)cc2)cc1-c1ccc(F)cc1 [Compound 88],50 to 200 µM
14,Cc1cc(=O)n(-c2ccc3scnc3c2)cc1-c1cnn(C)c1 [Compound 225],> 200 µM
15,O=C1Cc2ccccc2N1c1ccc(OC(F)(F)F)cc1 [Compound 81],50 to 200 µM
16,Cc1n[nH]c(C)c1-c1ccc(=O)n(-c2ccc(F)cc2)c1 [Compound 379],> 200 µM
17,Cn1cc(-c2ccc(=O)n(-c3ccc(OC(F)(F)F)cc3)n2)cn1 [Compound 363],> 200 µM
18,CCCC(=O)Nc1cc(=O)n(-c2ccc(OC(F)(F)F)cc2)cc1-c1ccc(F)cc1 [Compound 110],> 200 µM
19,O=c1ccc(Br)cn1-c1ccc(F)cc1 [Compound 265],> 200 µM
20,CC(C)Oc1ccc(-n2cc(Br)ccc2=O)cc1 [Compound 267],> 200 µM
21,COc1cccc(-n2cc(-c3ccc(S(N)(=O)=O)cc3)ccc2=O)c1 [Compound 331],> 200 µM

row,Compound,EC50
1,CC(=O)Nc1cccc(-n2cc(-c3ccccc3)c(C)cc2=O)c1 [Compound 167],> 200 µM
2,O=c1c2scnc2c(-c2cn[nH]c2)cn1-c1ccc(OC(F)(F)F)cc1 [Compound 582],< 50 µM
3,Cn1cc(-c2cn(-c3ccc(O)cc3)c(=O)cc2Oc2ccccc2)cn1 [Compound 545],> 200 µM
4,Cn1cc(-c2c[nH]c(=O)c3[nH]nnc23)cn1 [Compound 623],> 200 µM
5,CNc1cc(=O)n(-c2ccc(OC(F)(F)F)cc2)cc1-c1ccc(F)cc1 [Compound 90],> 200 µM
6,Cc1nc2c(-c3cnn(Cc4ccccc4)c3)cn(-c3ccc(OC(F)(F)F)cc3)c(=O)c2s1 [Compound 586],< 50 µM
7,Cc1cc(=O)n(-c2ccc(OC(F)(F)F)cc2C)cc1-c1ccc(F)cc1 [Compound 186],< 50 µM
8,Cn1cc(-c2cn(-c3ccc(OC(F)(F)F)cc3)c(=O)c3nn(CCF)nc23)cn1 [Compound 679],< 50 µM
9,Cc1cc(=O)n(-c2ccc(OC(F)(F)F)cc2)cc1-c1cccc2c1OCC(=O)N2 [Compound 423],> 200 µM
10,Cn1cc(-c2cn(-c3ccc(OC(F)(F)F)cc3)c(=O)cc2OCc2ccccc2)cn1 [Compound 143],> 200 µM
11,Cc1cc(=O)n(-c2ccc(OC(F)(F)F)cc2)cc1-c1cccc2[nH]c(=O)oc12 [Compound 555],> 200 µM
12,O=c1cc(OCCN2CCOCC2)c(-c2ccc(F)cc2)cn1-c1ccc(OC(F)(F)F)cc1 [Compound 92],50 to 200 µM
13,O=C1COCCN1CCOc1cc(=O)n(-c2ccc(OC(F)(F)F)cc2)cc1-c1ccc(F)cc1 [Compound 98],50 to 200 µM
14,Cn1cc(-c2cn(-c3ccc(C#N)cc3)c(=O)c3nccnc23)cn1 [Compound 398],> 200 µM
15,Cn1cc(-c2cn(-c3ccc(OC(F)(F)F)cc3)c(=O)cc2NCCc2ccccc2)cn1 [Compound 131],> 200 µM
16,Cn1cc(-c2cn(-c3cccc(NC(N)=O)c3)c(=O)cc2Oc2ccccc2)cn1 [Compound 537],< 50 µM
17,O=c1ccc(-c2cccc(Cl)c2)cn1-c1ccccc1Cl [Compound 322],< 50 µM
18,Cn1cc(-c2cnc(=O)n(-c3ccc(OC(F)(F)F)cc3)c2)cn1 [Compound 364],> 200 µM
19,CN1CCN(CCOc2cc(=O)n(-c3ccc(OC(F)(F)F)cc3)cc2-c2cnn(C)c2)CC1 [Compound 152],50 to 200 µM
20,Cn1cc(-c2cn(-c3ccc(OC(F)(F)F)cc3)c(=O)cc2NCc2ccc(C#N)cc2F)cn1 [Compound 527],< 50 µM
21,O=C(Nc1cc(=O)n(-c2ccc(OC(F)(F)F)cc2)cc1-c1ccc(F)cc1)Oc1ccccc1 [Compound 113],> 200 µM

row,Compound,EC50
1,Cc1cc(=O)n(-c2cccc(C(F)(F)F)c2)cc1-c1cnn(C)c1 [Compound 226],> 200 µM
2,CCn1c(=O)oc2ccc(-c3cn(-c4ccc(OC(F)(F)F)cc4)c(=O)cc3C)cc21 [Compound 554],> 200 µM
3,Cc1ccc(=O)n(-c2ccccc2F)c1 [Compound 283],> 200 µM
4,O=c1ccc(-c2cn[nH]c2)cn1-c1cccc(F)c1 [Compound 372],> 200 µM
5,Cc1cc(=O)n(-c2ccccc2F)cc1-c1ccccc1 [Compound 171],50 to 200 µM
6,Cn1cc(-c2cn(-c3ccc(OC(F)(F)F)cc3)c(=O)cc2Oc2cc(Cl)cc(C#N)c2)cn1 [Compound 156],> 200 µM
7,O=c1ccc(-c2ccc(F)cc2)cn1CCc1ccccc1 [Compound 77],50 to 200 µM
8,O=c1ccc(C2CCCCC2)cn1-c1ccccc1 [Compound 66],50 to 200 µM
9,CCOCCn1ccc2c(-c3cn[nH]c3)cn(-c3ccc(OC(F)(F)F)cc3)c(=O)c21 [Compound 691],< 50 µM
10,Cn1cc(-c2cn(-c3ccc(OC(F)(F)F)cc3)c(=O)cc2C(=O)O)cn1 [Compound 158],> 200 µM
11,CNC(=O)c1cccc(-n2cc(-c3ccc(F)cc3)c(C)cc2=O)c1 [Compound 190],50 to 200 µM
12,CNc1cc(=O)n(-c2ccc(OC(F)(F)F)cc2)cc1-c1cnn(C)c1 [Compound 125],> 200 µM
13,Cn1cc(-c2cn(-c3ccc(OC(F)(F)F)cc3)c(=O)cc2Oc2cccc(F)c2)cn1 [Compound 409],< 50 µM
14,O=c1c2cccnc2c(-c2cn[nH]c2)cn1-c1ccc(OC(F)(F)F)cc1 [Compound 579],> 200 µM
15,CCOC(=O)Nc1cc(=O)n(-c2ccc(OC(F)(F)F)cc2)cc1-c1cnn(C)c1 [Compound 137],> 200 µM
16,Cc1cc(-c2cnn(C)c2)cn(-c2ccc(OC(F)(F)F)cc2)c1=O [Compound 352],50 to 200 µM
17,Cn1ccc2c(-c3cn[nH]c3)cn(-c3ccc(Cl)cc3)c(=O)c21 [Compound 598],< 50 µM
18,O=c1ccc(-c2cncnc2)cn1-c1cccc(F)c1 [Compound 345],> 200 µM
19,O=c1c2[nH]cnc2c(-c2cn[nH]c2)cn1-c1ccc(OC(F)(F)F)cc1 [Compound 672],< 50 µM
20,Cc1cc(=O)n(-c2ccc3c(c2)OCCO3)cc1-c1cnn(C)c1 [Compound 222],> 200 µM
21,COC(=O)Nc1cc(=O)n(-c2ccc(OC(F)(F)F)cc2)cc1-c1cnn(C)c1 [Compound 138],> 200 µM
